Test results published in patent publication US20230321127A1, “SPERM MOTILITY IMPROVING AGENT AND SPERM MOTILITY IMPROVING METHOD” (MIRAILAB BIOSCIENCE INC., priority 2020, published 2023).

Test system: swine sperms
Assay: Swine sperm motility analyzed by CASA during incubation with NMN alone or NMN+PQQ
Assay type: cell-based
Method: Upon arrival of a pack containing swine diluted semen (sperm concentration (total sperm count) 30,000,000/ml, HIRO-SWINE B solution (HIROSHIMA CRYO-PRESERVATION SERVICE) was used as a diluent) provided by Oita Prefectural Agriculture, Forestry and Fisheries Research Center, the pack was immediately stored in an incubator at 15° C. The next day, 5 ml of the above semen from each pack was transferred to a 15 ml centrifuge tube, NMN was added to concentrations from 0.1 to 100 μM (0.1 μM, 1 μM, 10 μM, 100 μM) using HIRO-SWINE B solution as a culture medium, and they were incubated at 37° C. for up to 6 hours. For some diluted semen, pyrrolo-quinoline quinone (PQQ) (MITSUBISHI GAS CHEMICAL COMPANY, INC) was added to a concentration of 100 nM, in addition to NMN or without the addition of NMN, and it was incubated in the same manner. Sperms were taken out at 0, 2, 4, and 6 hours after the start of incubation, and their sperm motility was analyzed using CASA (HT CASA-Ceros II (product name), Hamilton Thorne, Inc.). […] The error bars in FIG. 2 represent standard errors. Sperm motion loci were also photographed by phase contrast microscopy at 2, 4, and 6 hours after the start of incubation and the photographs were shown in FIG. 3.

[1] = NMN alone addition zone (PQQ-), 0.1-100 μM, effect observed up to 4 hours later
[2] = NMN alone addition zone, 6 hours later

NC(=O)c1ccc[n+]([C@@H]2O[C@H](COP(=O)([O-])O)[C@@H](O)[C@H]2O)c1 [NMN, nicotinamide mononucleotide]
total moment (proportion of sperms in motion to total sperms counted) (NMN 0.1-100 μM added to swine diluted semen, 37° C., up to 6 hours): not affected
straight (forward) moment [1]: significantly increased
straight (forward) speed [1]: significantly increased
improving effect on the straight moment [2]: disappeared
improving effect on the straight speed [2]: disappeared
